A short description of the data set: Solubility of the API. It counts as physicochemical. The conditions noted are these: water and a buffer salt solution with pH 1.0-pH 6.8.

For the compound `Cn1c(C(=O)N2CC(F)(F)C2)cc2ccc(-c3nccc(Nc4ccc(-c5cn[nH]c5)cc4)n3)cc21` [compound of formula (IV), [6-[4-[[4-(1H-pyrazol-4-yl)phenyl]amino]pyrimidin-2-yl]-1-methyl-1H-indole-2-yl](3,3-difluoroazetidin-1-yl)methanone], the Solubility entry is reported as “insoluble”.

These data come from patent US20250352543A1, “NANOCRYSTALLINE PREPARATION OF ROCK2 INHIBITOR AND PREPARATION METHOD THEREFOR” (BEIJING TIDE PHARMACEUTICAL CO., LTD., priority 2021, published 2025).
